Laboratory results from US20130309768A1, “METHOD FOR CULTURING HUMAN PLURIPOTENT STEM CELLS” (NATIONAL INSTITUTE OF BIOMEDICAL INNOVATION, priority 2011, published 2013).
No end group written: not given here. *: point of attachment. Myristoyl = CCCCCCCCCCCCCC(=O)*

Key:
human ES cells = conditions: cited from earlier work
[1] = test system: human iPS cell line Tic (JCRB1331); assay: Culture with protein kinase C peptide inhibitor, alkaline phosphatase staining; assay type: cell-based; conditions: fourth day, FIG. 9
Description: Media comprising the activin-containing supplement+hESF-grow medium or the activin-free supplement+hESF-grow medium with fibronectin coating described in Example 3 and 0, 1, 2.5, 5, or 10 μM each of myristoylated protein kinase C peptide inhibitor (Myr. […]) (from Promega Corporation) added thereto were prepared, and used as first media containing a protein kinase C inhibitor and second media containing a protein kinase C inhibitor.
Human iPS cell line Tic (JCRB1331) was dispersed in the first medium containing a protein kinase C inhibitor and culturing was started. 60 hours after starting the culturing of the cell line Tic, a medium change into the second medium containing a protein kinase C inhibitor was conducted. Twice of medium changes were further conducted every 24 hours. On the fourth day after starting the culturing, the cells were fixed with 4.5 mM citric acid, 2.25 mM sodium citrate, 3 mM sodium chloride, 65% methanol and 4% paraformaldehyde for five minutes. Alkaline phosphatase staining was conducted with FastRed substrate kit (from Sigma Chemical Co.) according to the guidance of the manufacturer.

[2] = test system: ERK (extracellular signal-regulated kinases); conditions: addition of activin; cited from earlier work
[3] = test system: embryonal cancer cell line PA-1 (JCRB9061); assay: Cell adhesion to ECM-coated microplates (comparative example); assay type: cell-based; conditions: hESF9 medium, one hour culture; FIG. 1(c)
Description: (§1) The inventors studied on the substitution of ECMs such as collagen I, gelatin, laminin, fibronectin, and the like, which are recently used as a cell support in place of feeder cells, from animal-derived materials to animal product-free ingredients. Studies were conducted with human ES cell line KhES-1 (Laboratory of embryonic stem Cell research Center, Institute for Frontier Medical Sciences, Kyoto University), and human iPS cell line Tic (JCRB1331) (JSCB cell bank, National Institute of Biomedical Innovation); and the embryonal cancer cell line PA-1 (JCRB9061) (JSCB cell bank, National institute of Biomedical Innovation) was used as a comparative example.
(§2) Using 96 well microplates (from Corning Incorporated), each of collagen I (from Nitta Gelatin Inc.), gelatin (from Sigma Chemical Co.), laminin (from Sigma Chemical Co.), and fibronectin (from Sigma Chemical Co.) was treated at 37° C. for 3 hours, with avoiding being dried, to coat the microplates with each at 0.01, 0.05, 0.1, 0.5, 1, 5 and 10 μg/cm^2. The aforementioned hESF9 medium was added, and then human ES cell line KhES-1 and human iPS cell line Tic (JCRB1331), and embryonal cancer cell line PA-1 (JCRB9061) were seeded at […], after counting their cell numbers. After culturing the cells for two days (or culturing the embryonal cancer cell line PA-1 (JCRB9061) for one hour), the cells were fixed and nuclei of adhered cells were stained with 0.4% crystal violet (from Sigma Chemical Co.) dissolved in methanol for 30 minutes. The microplates were washed and then dried. The cells were lysed with 0.1 M sodium citrate dissolved in 50% methanol, and absorbance at 595 nm was measured with a microplate reader (model 550, from Bio-Rad Laboratories, Inc.).
Embryonal cancer cell line PA-1 (JCRB9061) was studied on the adhesion ability to the various ECNs described above.

[4] = test system: human ES cell line KhES-1; assay: Cell adhesion to ECM-coated microplates (crystal violet, absorbance 595 nm); assay type: cell-based; conditions: coating 0.01-10 μg/cm^2, hESF9 medium, two days culture; FIG. 1(a)
Description: as §1, §2

[5] = test system: human iPS cell line Tic (JCRB1331); assay: as above; assay type: cell-based; conditions: coating 0.01-10 μg/cm^2, hESF9 medium, two days culture; FIG. 1(b)
Description: as §1, §2

cell line H9 (WA09) = assay: Culture with fibronectin added to the medium, cell appearance; assay type: cell-based, human; conditions: 0, 20, 40, 80, 160, 320 μg/well tested; 9.6 cm^2 well, 3 mL medium; FIG. 8
Description: (§3) In a 6 well plate (from Becton, Dickinson and Company), first media containing fibronectin were prepared by adding 10 μg/mL recombinant human insulin, 5 μg/mL recombinant human transferrin (apo), 10 μM 2-mercaptoethanol, 10 μM 2-ethanolamine, 20 nM sodium selenite, 9.4 μg/mL oleic acid complexed with 1 mg/mL recombinant human albumin, and 2 ng/mL recombinant human activin to the hESF-grow medium, and further adding 0, 20, 40, 80, 160, or 320 μg/well of bovine fibronectin to each well.
as §3, with “second” for “first”, “adding” for “adding 10 μg/mL recombinant human insulin,”, “selenate and” for “selenite,”, “albumin” for “human albumin, and 2 ng/mL recombinant human activin”
The cell line H9 (WA09) was cultured similarly to the culturing on fibronectin coating described above, except that the first medium and the second medium described in the above section on fibronectin coating were replaced with the first media containing fibronectin and the second media containing fibronectin, and cells were cultured at varying concentrations of fibronectin in respective wells. The area of 1 well in the used plate was 9.6 cm^2, and 3 mL each of the medium was added.

murine ES cells = conditions: serum-free medium; cited from earlier work
pluripotent stem cells = assay: Cytokeratin expression of cells cultured on laminin; assay type: cell-based, human

## O=S(=O)(O)CCN1CCN(CCO)CC1 [HEPES]
Human ES cells; added into serum-free medium
  effect on the maintenance of human ES cells: very adverse effect

## Myr. RFARKGALRQKNV (Myristoyl-RFARKGALRQKNV)
[1]; 1 to 2.5 μM in medium
  proliferation: increase in proliferation
[1]; 1 to 5 μM in medium
  suppression of differentiation compared to no inhibitor: further suppression of differentiation

## activin
[2]
  ERK activation: activates ERK
Human ES cells; addition of activin
  differentiation induction into the nerve or mesendoderm: promotes differentiation induction

## collagen
[3]
  adhesion ability: strongest adhesion ability
  coating concentration at which adhesion ability was strongest: about 10 μg/cm^2
[4]
  adhesion ability: weak adhesion ability
[5]
  adhesion ability: weak adhesion ability

## fibronectin
[4]
  adhesion ability: strongest adhesion ability
[5]
  adhesion ability: strongest adhesion ability
Cell line H9 (WA09)
  amount of fibronectin at which the undifferentiated state was best maintained: 80 μg/well
Murine ES cells
  effect on undifferentiated state / differentiation: act to promote the differentiation

## gelatin
[3]
  adhesion ability: strongest adhesion ability
  coating concentration at which adhesion ability was strongest: about 10 μg/cm^2
[4]
  adhesion ability: weak adhesion ability
[5]
  adhesion ability: weak adhesion ability

## heparin
Human ES cells; added in the absence of FGF-2
  proliferation of ES cells: promotes the proliferation

## laminin
[4]
  adhesion ability: strongest adhesion ability
[5]
  adhesion ability: strongest adhesion ability
Pluripotent stem cells
  cytokeratin expression: express cytokeratin strongly
Murine ES cells
  effect on undifferentiated state / differentiation: act to promote the differentiation
